# In patent US20080076826A1, “POLYMORPHIC CRYSTAL OF 4'-{2-[ (1S, 2R) - 2- HYDROXY -2- (4-HYDROXYPHENYL) -1- METHYLETHYLAMINO] ETHOXY} - 3 - ISOPROPYL-3', 5' -DIMETHYLBIPHENYL - 4 - CARBOXYLIC ACID HYDROCHLORIDE” (KISSEI PHARMACEUTICAL CO., LTD., priority 2005, published 2008):
# Legend:
# Type in all cases: physicochemical
# [1] = Crystal form stability during preservation under usual conditions or medicine preparation steps; conditions: preservation under usual conditions (25° C., 60% relative humidity) or during pressurization, pulverization and like preparation steps
# [2] = Solid stability (Test Example 2): purity after storage for 8 weeks under four conditions
# Protocol: Each of (A) the α type crystal of biphenylcarboxylic acid hydrochloride (purity 99.8%) and (B) the γ type crystal of biphenylcarboxylic acid hydrochloride (purity 99.8%) were stored (1) at 40° C. for 8 weeks, (2) at 60° C. for 8 weeks, (3) at 40° C. and at a relative humidity of 75% for 8 weeks and (4) at 40° C. and at a relative humidity of 90% for 8 weeks.
# [3] = Solid stability (Test Example 1): purity after storage at 60° C., 75% relative humidity, 5 days; conditions: stored at 60° C. and relative humidity of 75% for 5 days; hydrochloride
# Protocol: Each of (1) amorphous biphenylcarboxylic acid hydrochloride (purity: 97.22%), (2) α type crystal of biphenylcarboxylic acid hydrochloride (purity: 99.56%) and (3) β type crystal of biphenylcarboxylic acid hydrochloride (purity: 99.84%) was stored at 60° C. and at a relative humidity of 75% for 5 days. Purities after the storage were (1) 94.99%, (2) 99.55% and (3) 99.65%, respectively.
# [4] = stored at 40° C. and relative humidity of 75% for 8 weeks
# [5] = stored at 40° C. and relative humidity of 90% for 8 weeks
"Purity after the storage [2, 4]","Purity after the storage [2, 5]",Purity after the storage ([2]; stored at 40° C. for 8 weeks),Purity after the storage ([2]; stored at 60° C. for 8 weeks),Purity after the storage [3],Compound,Change of crystal form [1]
99.87%,98.20%,99.82%,99.88%,,"4′-{2-[(1S,2R)-2-hydroxy-2-(4-hydroxyphenyl)-1-methylethylamino]ethoxy}-3-isopropyl-3′,5′-dimethylbiphenylcarboxylic acid hydrochloride [γ type crystal]",do not cause mutual changes in the crystal forms
,,,,94.99%,"Cc1cc(-c2ccc(C(=O)O)c(C(C)C)c2)cc(C)c1OCCN[C@@H](C)[C@H](O)c1ccc(O)cc1.Cl [amorphous biphenylcarboxylic acid hydrochloride] [4′-{2-[(1S,2R)-2-hydroxy-2-(4-hydroxyphenyl)-1-methylethylamino]ethoxy}-3-isopropyl-3′,5′-dimethylbiphenyl-4-carboxylic acid hydrochloride, reference compound]",
,,,,99.65%,"Cc1cc(-c2ccc(C(=O)O)c(C(C)C)c2)cc(C)c1OCCN[C@@H](C)[C@H](O)c1ccc(O)cc1.Cl [β type crystal, 4′-{2-[(1S,2R)-2-hydroxy-2-(4-hydroxyphenyl)-1-methylethylamino]ethoxy}-3-isopropyl-3′,5′-dimethylbiphenyl-4-carboxylic acid hydrochloride]",do not cause mutual changes in the crystal forms
99.58%,99.51%,99.79%,99.78%,99.55%,"Cc1cc(-c2ccc(C(=O)O)c(C(C)C)c2)cc(C)c1OCCN[C@@H](C)[C@H](O)c1ccc(O)cc1.Cl [α type crystal, 4′-{2-[(1S,2R)-2-hydroxy-2-(4-hydroxyphenyl)-1-methylethylamino]ethoxy}-3-isopropyl-3′,5′-dimethylbiphenyl-4-carboxylic acid hydrochloride]",do not cause mutual changes in the crystal forms
